For data set [1], the system named is P. aeruginosa H187. It counts as cell-based, Pseudomonas aeruginosa. As to conditions: H187. The gist of the method:
(§1)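 MIC read-out, μg/ml, lowest peptide concentration with no growth after overnight incubation at 37 °C in LB liquid broth. Inoculum 5×10^5 CFU/mL from overnight cultures. Therapeutic index = concentration giving complete blood-cell lysis at 4 h divided by MIC.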

For data set [2], the system named is P. aeruginosa H188. It counts as cell-based, Pseudomonas aeruginosa. Conditions: H188. The gist of the method: (§2)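 Antimicrobial activity is measured by a liquid-broth assay in LB at 37 °C overnight, starting from 5×10^5 CFU/mL. Values are minimal inhibitory concentrations, i.e. the lowest concentration that stops growth.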
Data set [3] concerns E. coli UB1005. It counts as cell-based, Escherichia coli. As to conditions: UB1005. The gist of the method: as §2
Data set [4] deals with E. coli DC2. It counts as cell-based, Escherichia coli. As to conditions: DC2. The gist of the method: as §1
The subject of data set [5] is S. typhinurium C587. It counts as cell-based, Salmonella typhinurium. The gist of the method: as §2
In data set [6] the test system is S. typhinurium C610. It counts as cell-based, Salmonella typhinurium. The gist of the method:
as §2

The test system of data set [7] is S. aureus K147. It counts as cell-based, Staphylococcus aureus. The gist of the method:
as §1

Data set [8] deals with S. aureus SAP0017. It counts as cell-based, Staphylococcus aureus. A digest of the protocol: as §1
In data set [9] the test system is S. epidermidis. It counts as cell-based, Staphylococcus epidermidis. The gist of the method: (§3)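 Liquid-broth microdilution: overnight LB cultures diluted and added to serial peptide dilutions at final 5×10^5 CFU/mL, incubated overnight at 37 °C. MIC is the lowest concentration inhibiting growth; C. albicans a clinical isolate, S. epidermidis clinical, C. xerosis environmental.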

The subject of data set [10] is B. subtilis. It counts as cell-based, Bacillus subtilis. The gist of the method:
as §3

The subject of data set [11] is E. faecalis. It counts as cell-based, Enterococcus faecalis. The gist of the method:
as §2

Data set [12] has as its system C. xeroses. It counts as cell-based, Corynebacterium xerosis. The gist of the method: as §3
The subject of data set [13] is C. Albicans. It counts as cell-based, Candida albicans. The gist of the method: as §3
Data set [14] relates to human erythrocytes. In words: Hemolytic activity. It counts as cell-based. The method, then: Serial dilutions of the peptides in saline were prepared in round bottom microtitre plates using 100 μL volumes. Red blood cells were diluted with saline to 1/25 packed volume of cells and 50 μL added to each well. Plates were incubated with rocking at 37° C., and the concentration required for complete lysis determined visually after 4 h.

Data set [15] can be described thus: Displacement of dansyl-polymyxin from LPS. It counts as binding, P. aeruginosa. Conditions: read-out: LPS binding affinity: peptide concentration to displace 50% of dansyl-polymyxin B from LPS; Tables 1, 4, 7. A digest of the protocol: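 Peptides titrated into 3 μg/mL P. aeruginosa LPS with 2.5 μM dansyl-polymyxin (~90% site saturation) in 5 mM sodium HEPES, pH 7.0; fluorescence decrease recorded. I50 (50% probe displacement) taken from the x-intercept of a double-reciprocal plot of percent inhibition versus inhibitor concentration.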

Read-outs that look alike come from different tables or passages of the source. Bounds are passed on as bounds.

Data on six molecules can be found in patent publication US6358921B1, “Antimicrobial peptide compositions and method” (priority 1996, dated 2002).

As to `CC(C)C[C@@H]1NC(=O)[C@H](CCCCN)NC(=O)[C@H](C(C)C)NC(=O)[C@@H]2CCCN2C(=O)[C@@H](Cc2ccccc2)NC(=O)[C@H](CC(C)C)NC(=O)[C@H](CCCCN)NC(=O)[C@H](C(C)C)NC(=O)[C@H](CCCCN)NC(=O)[C@H](CC(C)C)NC(=O)[C@@H]2CCCN2C(=O)[C@@H](Cc2ccccc2)NC(=O)[C@H](C(C)C)NC(=O)[C@@H](CCCCN)NC1=O` [Y2/F2], the “Minimum Inhibitory Concentration (activity)” value amounted to 17 µg/mL in data set [1]; 3.1 µg/mL in [2]; 6.2 µg/mL in data set [3]; 1.5 µg/mL in data set [4]; 9 µg/mL in [5]; 3.1 µg/mL in [6]. Besides, the “Minimum Inhibitory Concentration (activity)” value is 12.5 µg/mL in [7]; 9 µg/mL in data set [8]; 3.1 µg/mL in data set [9]; 12.5 µg/mL in [10]; 6.2 µg/mL in [11]; 1.5 µg/mL in data set [12]. In addition, the “Minimum Inhibitory Concentration (activity)” value in data set [13] worked out at 3.1 µg/mL. Also, in data set [14], the “Hemolytic activity: peptide concentration for 100% lysis of human erythrocytes” value stood at 40 µg/mL. Further, in data set [15], the IC50 came out at 59 µM.
In the case of `CC(C)C[C@@H]1NC(=O)[C@H](CCCCN)NC(=O)[C@H](CC(C)C)NC(=O)[C@@H]2CCCN2C(=O)[C@@H](Cc2ccccc2)NC(=O)[C@H](CC(C)C)NC(=O)[C@@H](CCCCN)NC(=O)[C@H](CC(C)C)NC(=O)[C@H](CCCCN)NC(=O)[C@H](CC(C)C)NC(=O)[C@@H]2CCCN2C(=O)[C@@H](Cc2ccccc2)NC(=O)[C@H](CC(C)C)NC(=O)[C@H](CCCCN)NC1=O` [Y2/F2 V3/L3], the “Minimum Inhibitory Concentration (activity)” value in [1] was found to be 12.5 µg/mL; in data set [2] it was 3.1 µg/mL; in data set [3] it was 9 µg/mL; in [4], 2 µg/mL; in data set [5], 35 µg/mL; in data set [6], 12.5 µg/mL. The “Minimum Inhibitory Concentration (activity)” value in data set [7] was determined as 9 µg/mL; in data set [8] it was 9 µg/mL; in data set [9], 2 µg/mL; in data set [10], 6.2 µg/mL; in data set [11] it was 1.5 µg/mL; in data set [12] it was 1 µg/mL. Further, the “Minimum Inhibitory Concentration (activity)” value in data set [13] was determined as 3.1 µg/mL. The “Hemolytic activity: peptide concentration for 100% lysis of human erythrocytes” value in data set [14] (Tables 1, 4, 7) was 12.5 µg/mL. In data set [15], the IC50 was 25 µM.
For the molecule `C[C@@H]1NC(=O)[C@H](CCCCN)NC(=O)[C@H](C)NC(=O)[C@@H]2CCCN2C(=O)[C@@H](Cc2ccc(O)cc2)NC(=O)[C@H](C)NC(=O)[C@@H](CCCCN)NC(=O)[C@H](C)NC(=O)[C@H](CCCCN)NC(=O)[C@H](C)NC(=O)[C@@H]2CCCN2C(=O)[C@@H](Cc2ccc(O)cc2)NC(=O)[C@H](C)NC(=O)[C@H](CCCCN)NC1=O` [V3L3/A6], the “Minimum Inhibitory Concentration (activity)” value in [1] was greater than 200 µg/mL; in data set [2], 75 µg/mL; in data set [3] it was greater than 200 µg/mL; in [4], greater than 200 µg/mL; in data set [5] it was greater than 200 µg/mL; in data set [6], greater than 200 µg/mL. In addition, the “Minimum Inhibitory Concentration (activity)” value is greater than 200 µg/mL in data set [7]; greater than 200 µg/mL in [8]; greater than 200 µg/mL in [9]; greater than 200 µg/mL in data set [10]; greater than 200 µg/mL in data set [11]; 200 µg/mL in data set [12]. The “Minimum Inhibitory Concentration (activity)” value in data set [13] is 400 µg/mL. The “Hemolytic activity: peptide concentration for 100% lysis of human erythrocytes” value in data set [14] was greater than 800 µg/mL. Moreover, the IC50 in data set [15] is 291 µM.
Regarding `CC(C)[C@@H]1NC(=O)[C@H](CCCCN)NC(=O)[C@H](C)NC(=O)[C@@H]2CCCN2C(=O)[C@@H](Cc2ccc(O)cc2)NC(=O)[C@H](C(C)C)NC(=O)[C@@H](CCCCN)NC(=O)[C@H](C)NC(=O)[C@H](CCCCN)NC(=O)[C@H](C(C)C)NC(=O)[C@@H]2CCCN2C(=O)[C@@H](Cc2ccc(O)cc2)NC(=O)[C@H](C)NC(=O)[C@H](CCCCN)NC1=O` [L3/A3], the “Minimum Inhibitory Concentration (activity)” value in data set [1] is 200 µg/mL; in data set [2], 75 µg/mL; in [3], 200 µg/mL; in data set [4], 200 µg/mL; in data set [5] it was greater than 200 µg/mL; in [6], 100 µg/mL. Also, the “Minimum Inhibitory Concentration (activity)” value is greater than 200 µg/mL in data set [7]; greater than 200 µg/mL in data set [8]; greater than 200 µg/mL in data set [9]; greater than 200 µg/mL in [10]; greater than 200 µg/mL in [11]; 100 µg/mL in data set [12]. For the same molecule, the “Minimum Inhibitory Concentration (activity)” value in [13] was greater than 200 µg/mL. For the same molecule, the “Hemolytic activity: peptide concentration for 100% lysis of human erythrocytes” value in data set [14] is greater than 800 µg/mL. The IC50 in data set [15] was 243 µM.
On to `CC(C)C[C@@H]1NC(=O)[C@H](CCCCN)NC(=O)[C@H](CC(C)C)NC(=O)[C@@H]2CCCN2C(=O)[C@@H](Cc2ccc(O)cc2)NC(=O)[C@H](CC(C)C)NC(=O)[C@@H](CCCCN)NC(=O)[C@H](CC(C)C)NC(=O)[C@H](CCCCN)NC(=O)[C@H](CC(C)C)NC(=O)[C@@H]2CCCN2C(=O)[C@@H](Cc2ccc(O)cc2)NC(=O)[C@H](CC(C)C)NC(=O)[C@H](CCCCN)NC1=O` [V3/L3], for which the “Minimum Inhibitory Concentration (activity)” value worked out at 100 µg/mL in data set [1]; 3.1 µg/mL in data set [2]; 6.2 µg/mL in data set [3]; 3.1 µg/mL in data set [4]; 100 µg/mL in [5]; 15 µg/mL in data set [6]. Besides, the “Minimum Inhibitory Concentration (activity)” value in data set [7] worked out at 25 µg/mL; in data set [8], 12.5 µg/mL; in [9], 1.5 µg/mL; in [10], 9 µg/mL; in data set [11] it was 1.5 µg/mL; in data set [12] it was 1 µg/mL. Moreover, the “Minimum Inhibitory Concentration (activity)” value in [13] is 4 µg/mL. In addition, the “Hemolytic activity: peptide concentration for 100% lysis of human erythrocytes” value in data set [14] worked out at 25 µg/mL. The IC50 in [15] was found to be 46 µM.
As for `CC(C)C[C@@H]1NC(=O)[C@H](C(C)C)NC(=O)[C@H](CC(C)C)NC(=O)[C@@H]2CCCN2C(=O)[C@@H](Cc2ccc(O)cc2)NC(=O)[C@H](C(C)C)NC(=O)[C@H](CC(C)C)NC(=O)[C@H](C(C)C)NC(=O)[C@H](CCCCN)NC(=O)[C@H](CCCCN)NC(=O)[C@@H]2CCCN2C(=O)[C@@H](Cc2ccc(O)cc2)NC(=O)[C@H](CCCCN)NC(=O)[C@H](CCCCN)NC1=O` [GS14napol], the “Minimum Inhibitory Concentration (activity)” value was determined as 50 µg/mL in [1]; 9 µg/mL in data set [2]; 18 µg/mL in data set [3]; 4 µg/mL in data set [4]; 50 µg/mL in data set [5]; 25 µg/mL in data set [6]. In addition, the “Minimum Inhibitory Concentration (activity)” value in [7] is greater than 200 µg/mL; in data set [8] it was 200 µg/mL; in data set [9], 25 µg/mL; in data set [10] it was greater than 200 µg/mL; in data set [11], 75 µg/mL; in [12], 1.2 µg/mL. In addition, the “Minimum Inhibitory Concentration (activity)” value in data set [13] came to 37 µg/mL. Also, the “Hemolytic activity: peptide concentration for 100% lysis of human erythrocytes” value in data set [14] is 800 µg/mL. In addition, the IC50 in [15] was found to be 98 µM.
